# Key:
# Plasmodium falciparum [1] = assay: NOVARTIS: Inhibition of Plasmodium falciparum 3D7 (drug-susceptible) proliferation in erythrocyte-based infection assay; assay type: functional, organism-based; conditions: Plasmodium falciparum, 3D7
# Plasmodium falciparum [2] = assay: NOVARTIS: Inhibition of Plasmodium falciparum W2 (drug-resistant) proliferation in erythrocyte-based infection assay; assay type: functional, organism-based; conditions: Plasmodium falciparum, W2; read-out: EC50
# [3] = NOVARTIS: Cytotoxicity against human hepatocellular carcinoma cell line (Huh7); assay type: toxicity, cell-based, Huh-7; conditions: Huh7 cells (hepatocellular carcinoma cell line)
Structure (SMILES),EC50 (Plasmodium falciparum [1]) [nM],EC50 (Plasmodium falciparum [2]) [nM],CC50 [3] [nM]
c1ccc(Nc2nc(-c3ccccn3)cs2)nc1,114,58.5,18600
Cc1ccnc(NC(c2cccc(Cl)c2Cl)c2ccc3cccnc3c2O)c1 (stereo not drawn),152,144,> 49000
CCN1CCN(Cc2c(O)ccc3c(=O)c(Oc4cc(C)cc(C)c4)c(C(F)(F)F)oc23)CC1,3630,296,> 100000
CCC(c1nc2ccccc2c(=O)n1-c1ccccc1OC)N(CCc1ccccc1)C(=O)c1cccc(OC)c1 (stereo not drawn),1080,31.1,> 10000
CCOC(=O)c1c(CNc2ccncc2)n(C)c2cc(Br)c(OC(C)=O)cc12,257,310,> 100000
CC(Cl)=CCc1c(C)nc2c(ccc3ccccc32)c1O,230,299,> 100000
COc1cc(OC)c(NC(=O)C2c3ccccc3C(=O)N(C)C2c2cccs2)cc1Cl (stereo not drawn),320,310,> 100000
O=C(Nc1ccccc1Cl)c1cc2ccccc2cc1O,327,298,> 100000
CCOC(=O)c1c(CNCCN(CC)CC)n(C)c2cc(Br)c(OC(C)=O)cc12,833,309,> 100000
Cc1ccc(-c2cn3c([n+]2-c2ccccc2)SCC3)cc1,427,309,> 100000
CC(C)CCN(CCC(C)C)CC(O)Cn1c2ccc(Br)cc2c2cc(Br)ccc21 (stereo not drawn),1490,309,> 100000
Cc1ccc2cc3c(N)c4c(C)ccc(C)c4nc3nc2c1,431,308,> 100000
O=S(=O)(NCCNc1ncnc2scc(-c3ccccc3)c12)c1ccc(Cl)c(Cl)c1,290,307,> 100000
CC1=C(C(=O)OC(C)C)C(c2ccc(F)cc2)C2=C(CC(c3ccc(Cl)cc3)CC2=O)N1 (stereo not drawn),358,91.3,29700
COc1cc(NC(C)CCCN(Cc2ccc(Cl)cc2)C(=O)Nc2ccc(Cl)cc2Cl)c2ncccc2c1 (stereo not drawn),416,< 17.1,5600
COc1ccc(/C=C/c2ccc3ccccc3[n+]2C)cc1,133,30.4,> 10000
O=C(Nc1ccc2c(c1)OCO2)c1cc2cc(C3(O)CCN(CC4CCCCC4)CC3)ccc2o1,442,311,> 100000
O=C(NC(=S)Nc1ccc(NC(=O)c2cccs2)cc1)c1ccco1,468,311,> 100000
CCCNC1=C(N(C(C)=O)c2ccc(C)cc2)C(=O)c2ccccc2C1=O,13,13.1,4330
Brc1ccc(-c2cn3c([n+]2-c2ccccc2)SCC3)cc1,335,303,> 100000
CC1CN(C(=O)C(Cl)(Cl)Cl)C(C)CN1C(=O)C(Cl)(Cl)Cl (stereo not drawn),2050,302,> 100000
Cc1nc2ncccn2c1-c1csc(Nc2ccccn2)n1,189,314,> 100000
CCCCCSc1scc(-c2ccc(O)c(O)c2)[n+]1C,254,313,> 100000
O=C(NCc1n[nH]c(=S)n1-c1ccc(Br)cc1)c1cccc2ccccc12,293,301,> 100000
Cc1cc(C)c2c(c1)OCN(Cc1ccccc1Cl)C2,192,300,> 100000
COc1ccc(-c2nc(CN3CCCCC3)ccc2O)cc1,131,30,> 10000

Structure (SMILES),EC50 (Plasmodium falciparum [1]) [nM],EC50 (Plasmodium falciparum [2]) [nM],CC50 [3] [nM]
CC(C)(C)NCC(O)Cn1c2ccc(Cl)cc2c2cc(Cl)ccc21 (stereo not drawn),258,56.3,18800
CCCn1c(SCCNC(=O)/C=C/c2ccccc2)nc(-c2ccccc2)c1-c1ccccc1,557,29.7,9380
CC(=O)N(C1=C(N2CCCCCC2)C(=O)c2ccccc2C1=O)C1CCCCC1,137,93.9,30200
CCC(C(=O)NCc1ccc(OC)c(OC)c1)n1nc(C)c2c(C)n(-c3ccc(C)cc3)nc2c1=O (stereo not drawn),273,299,> 100000
CC(C)(C)CC(C)(C)Nc1c(-c2ccccc2OC(=O)C2CCCC2)nc2ccccn12,2100,29.9,> 10000
O=C(c1ccc2nc(N3CCCCC3)sc2c1)N1CCN(Cc2ccc3c(c2)OCO3)CC1,407,298,> 100000
COc1ccc2c(Cl)c(C(=O)Nc3cc(C)on3)sc2c1Cl,430,316,> 100000
O=C(NNc1ccccc1F)c1c(F)cccc1Cl,> 1250,< 31.6,> 10000
Cc1cc(C)n(CC(O)Cn2c3ccc(I)cc3c3cc(I)ccc32)n1 (stereo not drawn),1190,296,> 100000
OC(CN1CCN(c2ccnc3cc(Cl)ccc23)CC1)CN1CCN(c2ccnc3cc(Cl)ccc23)CC1,85.6,29.6,> 10000
CCOC(=O)c1ccc(N(C(=O)Cc2c[nH]c3ccccc23)C(C(=O)NC2CCCCC2)c2cccnc2)cc1 (stereo not drawn),280,295,> 100000
CC(=O)N(C1=C(N2CCCC2)C(=O)c2ccccc2C1=O)c1ccc(F)cc1,646,75.9,25800
C[n+]1ccn(-c2ccc(C(=O)c3ccc(-n4cc[n+](C)c4)cc3)cc2)c1,33.5,29.4,> 10000
O=C(COc1ccc(Cl)cc1)Nc1cccc(-c2nc3ncccc3o2)c1,1640,311,> 100000
O=C(c1c2c(nc3ccccc13)CCC2)N1CCc2ccccc21,1940,< 36.7,> 11700
COC(=O)C1=C(C)N/C(=C\c2cc(C)n(-c3ccccc3C(F)(F)F)c2C)C1=O,22.4,29.9,> 10000
CCCCCCc1cc(O)c2c3c(c(=O)oc2c1)CCC(C)C3 (stereo not drawn),364,297,> 100000
COc1ccc(C2=C(c3ccc(OC)cc3)C3(c4ccccc4)C(=O)C2(c2ccccc2)C2C(=O)N(c4ccc(OC)cc4[N+](=O)[O-])C(=O)C23)cc1 (stereo not drawn),353,316,> 100000
Oc1nc(-c2ccccn2)nc(C(F)(F)F)c1Br,490,< 25.6,> 8270
Clc1ccc(-c2c[n+](CCc3ccccc3)c3n2CCC3)cc1,380,299,> 100000
Cc1cc2nc3ccc(N(C)C)cc3[n+](-c3ccccc3)c2cc1N,156,31.2,> 10000
O=C1CC(c2ccccc2)CC2=C1C(c1cc(F)ccc1F)Nc1ccccc1N2 (stereo not drawn),1020,310,> 100000
O=C1[C@@H]2CCCN2C(=O)C(c2ccc(Oc3ccccc3)cc2)N1CCc1ccccn1 (stereo partly drawn),> 1250,< 30.4,> 10000
CCCCCC1CCCc2c1[nH]c1cc(Cl)ccc1c2=O (stereo not drawn),475,302,> 100000
CC[n+]1c(C=C2C=C(C)CC(C)C2)sc2ccccc21 (stereo not drawn),326,300,> 100000

# Source: ChEMBL document CHEMBL1156829 (Proc Natl Acad Sci U S A, 2008)
